By AC50 is commonly meant the midpoint of the concentration-response curve, whichever way the signal moves.

The target in test [1] is T1, Replicative DNA helicase DnaB (Mycobacterium tuberculosis, UniProt P9WMR3).
T1 sequence (P9WMR3 whole entry): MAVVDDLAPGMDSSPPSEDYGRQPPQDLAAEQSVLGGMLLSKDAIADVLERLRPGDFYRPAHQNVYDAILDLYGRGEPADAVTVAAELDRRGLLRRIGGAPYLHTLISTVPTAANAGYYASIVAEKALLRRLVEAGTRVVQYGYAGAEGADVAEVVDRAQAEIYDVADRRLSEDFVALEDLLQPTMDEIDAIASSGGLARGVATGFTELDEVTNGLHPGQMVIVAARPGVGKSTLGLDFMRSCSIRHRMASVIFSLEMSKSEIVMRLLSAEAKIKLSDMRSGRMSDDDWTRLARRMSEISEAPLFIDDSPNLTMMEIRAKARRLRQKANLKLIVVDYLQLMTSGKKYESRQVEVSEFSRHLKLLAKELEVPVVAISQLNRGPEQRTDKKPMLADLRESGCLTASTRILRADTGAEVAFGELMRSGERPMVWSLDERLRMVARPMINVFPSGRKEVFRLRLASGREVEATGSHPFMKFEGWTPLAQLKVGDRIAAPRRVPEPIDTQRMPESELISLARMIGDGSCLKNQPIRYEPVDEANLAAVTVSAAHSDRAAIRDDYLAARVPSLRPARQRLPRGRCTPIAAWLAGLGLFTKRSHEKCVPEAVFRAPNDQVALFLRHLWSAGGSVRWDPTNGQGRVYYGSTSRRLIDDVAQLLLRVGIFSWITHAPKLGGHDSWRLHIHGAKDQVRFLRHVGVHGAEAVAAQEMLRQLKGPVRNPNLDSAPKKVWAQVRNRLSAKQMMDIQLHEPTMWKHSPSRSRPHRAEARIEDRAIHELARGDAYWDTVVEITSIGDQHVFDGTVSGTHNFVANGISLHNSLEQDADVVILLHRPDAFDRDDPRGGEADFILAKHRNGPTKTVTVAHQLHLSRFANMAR
In words: DnaB intein splicing inhibitors, dose response, biochemical, cell-free fluorescence (AID 449749). It counts as functional.

For a further test, the target named is T2, Protein RecA (Mycobacterium tuberculosis, UniProt P9WHJ3).
T2 sequence (P9WHJ3 whole entry): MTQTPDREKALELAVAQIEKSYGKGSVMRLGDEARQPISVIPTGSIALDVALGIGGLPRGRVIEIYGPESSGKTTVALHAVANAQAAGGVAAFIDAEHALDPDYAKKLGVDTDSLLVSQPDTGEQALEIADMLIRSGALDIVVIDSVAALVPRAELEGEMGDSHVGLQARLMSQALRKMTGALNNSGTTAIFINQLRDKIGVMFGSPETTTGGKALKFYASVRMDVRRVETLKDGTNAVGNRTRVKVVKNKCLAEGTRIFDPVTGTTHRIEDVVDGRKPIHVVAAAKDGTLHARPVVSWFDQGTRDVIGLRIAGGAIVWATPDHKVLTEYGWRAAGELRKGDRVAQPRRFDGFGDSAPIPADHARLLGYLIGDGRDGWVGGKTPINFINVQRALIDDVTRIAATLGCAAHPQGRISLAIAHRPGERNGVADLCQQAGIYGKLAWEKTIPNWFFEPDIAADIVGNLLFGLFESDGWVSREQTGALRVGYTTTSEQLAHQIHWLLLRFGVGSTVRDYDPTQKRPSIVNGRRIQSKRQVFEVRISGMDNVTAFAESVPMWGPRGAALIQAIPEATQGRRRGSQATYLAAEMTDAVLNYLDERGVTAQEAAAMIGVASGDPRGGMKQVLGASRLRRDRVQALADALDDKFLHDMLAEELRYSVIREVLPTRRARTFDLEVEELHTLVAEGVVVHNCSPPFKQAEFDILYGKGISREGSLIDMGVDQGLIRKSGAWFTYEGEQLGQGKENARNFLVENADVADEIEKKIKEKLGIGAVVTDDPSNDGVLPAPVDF
In words: Fluorescence Cell-Free Homogeneous Dose Retest to Identify Inhibitors of RecA-Intein Splicing Activity. [Related pubchem assays (depositor defined):AID2097, AID2223, AID489010, AID492950]. In kind it is functional.

The target of a further test is Nonstructural protein 1 (Influenza A virus, UniProt Q194T2). It counts as functional, Influenza A virus (A/California/07/2009(H1N1)).
Another test has as its target T3, Protein skinhead-1 (Caenorhabditis elegans, UniProt P34707).
T3 sequence (P34707 whole entry): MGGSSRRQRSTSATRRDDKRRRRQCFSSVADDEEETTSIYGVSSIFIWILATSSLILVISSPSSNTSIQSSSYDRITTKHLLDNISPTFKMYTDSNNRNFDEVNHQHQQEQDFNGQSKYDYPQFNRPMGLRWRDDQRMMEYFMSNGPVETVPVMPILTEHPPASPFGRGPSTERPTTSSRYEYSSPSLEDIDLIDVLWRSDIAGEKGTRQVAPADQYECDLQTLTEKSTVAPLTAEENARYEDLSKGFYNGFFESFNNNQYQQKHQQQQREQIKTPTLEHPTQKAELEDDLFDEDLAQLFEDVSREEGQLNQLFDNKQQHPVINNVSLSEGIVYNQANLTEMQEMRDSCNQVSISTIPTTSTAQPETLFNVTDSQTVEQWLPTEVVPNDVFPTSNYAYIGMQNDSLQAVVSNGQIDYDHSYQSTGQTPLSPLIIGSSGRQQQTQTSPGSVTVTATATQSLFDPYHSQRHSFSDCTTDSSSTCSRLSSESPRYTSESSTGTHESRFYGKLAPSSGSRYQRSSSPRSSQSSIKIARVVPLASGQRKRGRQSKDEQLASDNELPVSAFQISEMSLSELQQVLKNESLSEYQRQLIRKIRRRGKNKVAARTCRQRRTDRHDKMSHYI
It counts as functional.

In a further test the target is Estrogen receptor beta (Homo sapiens, UniProt Q92731).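 Also: recombinant ER-beta bound to coactivator SRC1 peptide in presence of estradiol agonist; inhibitors block coactivator peptide binding and lower the FRET signal.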
Test [2] has as its target T4, Polyadenylate-binding protein 1 (Homo sapiens, UniProt P11940). Kind of test: PABP1 MLLE–PAM2 binding inhibitor potency, dose response, biochemical, fluorescence polarization, FITC-PAM2 peptide (AID 602259). To be noted: read-out: IC50_Mean. It counts as functional. Background: Polarisation of emitted light reports the rotation of a fluorescent probe.
Test [3] concerns the target T4, Polyadenylate-binding protein 1. In words: PABP1 MLLE–PAM2 interaction inhibitors, dose response, miRNA deadenylation inhibitor project, biochemical, fluorescence polarization, Cy5-PAM2 peptide, secondary (AID 602260). In kind it is functional. The conditions noted are these: read-out: IC50_Mean.
The nature of test [4]: intracellular Trypanosoma cruzi inhibitors in host cells – cell-based, plate reader, cherry-pick samples, set 3, dose response (AID 651818).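 Also: compounds incubated with infected cells for about four days.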 In kind it is functional.
For test [5], the target named is T5, Corticotropin-releasing factor receptor 2/Corticotropin-releasing factor-binding protein (Homo sapiens, UniProt P24387+Q13324).
T5 sequence (Q13324 whole entry): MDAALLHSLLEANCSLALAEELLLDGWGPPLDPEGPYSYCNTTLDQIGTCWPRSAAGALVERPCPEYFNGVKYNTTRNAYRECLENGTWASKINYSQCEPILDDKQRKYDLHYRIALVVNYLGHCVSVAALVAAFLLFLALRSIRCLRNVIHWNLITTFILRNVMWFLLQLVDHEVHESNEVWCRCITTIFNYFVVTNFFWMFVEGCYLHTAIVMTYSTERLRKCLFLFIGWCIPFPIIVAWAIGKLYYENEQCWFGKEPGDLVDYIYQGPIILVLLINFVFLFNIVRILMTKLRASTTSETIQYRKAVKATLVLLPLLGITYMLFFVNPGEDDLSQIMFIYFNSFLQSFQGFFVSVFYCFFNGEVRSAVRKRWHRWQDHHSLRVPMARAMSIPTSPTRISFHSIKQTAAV
T5 sequence (P24387 whole entry): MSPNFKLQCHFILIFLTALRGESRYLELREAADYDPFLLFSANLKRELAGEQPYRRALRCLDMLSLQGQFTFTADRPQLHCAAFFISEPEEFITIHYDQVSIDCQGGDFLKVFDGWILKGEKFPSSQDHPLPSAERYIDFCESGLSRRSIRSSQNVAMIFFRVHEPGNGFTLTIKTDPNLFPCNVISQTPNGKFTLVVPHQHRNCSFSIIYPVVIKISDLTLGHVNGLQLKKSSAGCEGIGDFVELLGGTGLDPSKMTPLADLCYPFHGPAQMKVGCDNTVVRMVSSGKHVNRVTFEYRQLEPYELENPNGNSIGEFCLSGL
Kind of test: activators of CRF receptor 2 with binding protein – uHTS hits, confirmation (AID 602473). It counts as functional. To be noted: read-out: EC50_Mean.

The next test concerns the target Genome polyprotein (dengue virus type 2, UniProt P29990). Kind of test: Dengue-2 NS5 methyltransferase inhibitors, primary screen, biochemical, confirmation dose response (AID 588689). In kind it is functional.
A short description of test [6]: THP-1 cell cytotoxicity, dose response, cytotoxicity control for Vif-APOBEC3G degradation inhibitor project, THP-1 cells (AID 1117359). It counts as functional. The conditions noted are these: Human immunodeficiency virus 1, THP-1.
The nature of test [7]: microbe, parasite or virus in culture. In kind it is functional. To be noted: Mycobacterium tuberculosis.
Test [8] deals with Heat shock protein HSP 90-alpha (Homo sapiens, UniProt P07900). It counts as functional, organism-based.
A further test addresses Beta Lactamase (Pseudomonas aeruginosa, UniProt Q932Y6). In words: beta-lactamase reporter inhibitor potency, dose response, artefact control for TLR9-MyD88 binding inhibitor project, BLA reporter cells, FRET fluorescence (AID 588341).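 Also: cell based assay in CHO-K1 cells stably expressing beta-lactamase.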 It counts as cell-based.
The test system of a further test is CHO. Kind of test: cytotoxicity in TLR9-MyD88 CHO cells, dose response, cytotoxicity control for TLR9-MyD88 binding inhibitor project, cell-based, luminescence (AID 588339).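 Also: CHO cells stably coexpressing TLR9 and MyD88 fusions from primary screen; compound exposure lasted 48 hours before viability readout.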 The conditions noted are these: Cricetulus griseus. It counts as functional, hamster.

Calls of active or inactive are those of the source.

T4 sequence (P11940 whole entry): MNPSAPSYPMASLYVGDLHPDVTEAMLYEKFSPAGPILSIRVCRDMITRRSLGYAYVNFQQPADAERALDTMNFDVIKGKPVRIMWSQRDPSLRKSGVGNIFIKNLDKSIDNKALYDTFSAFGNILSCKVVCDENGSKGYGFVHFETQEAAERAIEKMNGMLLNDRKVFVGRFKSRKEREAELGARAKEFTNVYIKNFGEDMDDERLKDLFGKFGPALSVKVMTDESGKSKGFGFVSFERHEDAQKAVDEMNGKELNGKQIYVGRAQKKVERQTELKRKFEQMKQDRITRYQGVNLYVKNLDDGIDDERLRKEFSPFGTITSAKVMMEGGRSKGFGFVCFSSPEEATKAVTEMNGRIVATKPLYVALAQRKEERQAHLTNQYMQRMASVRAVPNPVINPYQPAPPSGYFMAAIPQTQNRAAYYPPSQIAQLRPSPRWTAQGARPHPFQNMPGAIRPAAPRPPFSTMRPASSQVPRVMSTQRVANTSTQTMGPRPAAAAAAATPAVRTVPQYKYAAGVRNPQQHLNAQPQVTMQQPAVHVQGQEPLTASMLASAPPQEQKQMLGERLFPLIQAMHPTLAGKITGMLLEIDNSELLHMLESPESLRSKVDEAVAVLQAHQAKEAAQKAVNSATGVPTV
Chain of Nonstructural protein 1 (Q194T2 whole entry): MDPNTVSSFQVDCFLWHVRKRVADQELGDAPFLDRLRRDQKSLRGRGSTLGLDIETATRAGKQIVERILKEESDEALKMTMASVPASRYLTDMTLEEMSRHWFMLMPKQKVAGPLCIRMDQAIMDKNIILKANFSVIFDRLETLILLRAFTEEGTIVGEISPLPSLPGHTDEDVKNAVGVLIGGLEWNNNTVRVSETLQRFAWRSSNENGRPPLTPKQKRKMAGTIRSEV
Chain of Estrogen receptor beta (Q92731 whole entry): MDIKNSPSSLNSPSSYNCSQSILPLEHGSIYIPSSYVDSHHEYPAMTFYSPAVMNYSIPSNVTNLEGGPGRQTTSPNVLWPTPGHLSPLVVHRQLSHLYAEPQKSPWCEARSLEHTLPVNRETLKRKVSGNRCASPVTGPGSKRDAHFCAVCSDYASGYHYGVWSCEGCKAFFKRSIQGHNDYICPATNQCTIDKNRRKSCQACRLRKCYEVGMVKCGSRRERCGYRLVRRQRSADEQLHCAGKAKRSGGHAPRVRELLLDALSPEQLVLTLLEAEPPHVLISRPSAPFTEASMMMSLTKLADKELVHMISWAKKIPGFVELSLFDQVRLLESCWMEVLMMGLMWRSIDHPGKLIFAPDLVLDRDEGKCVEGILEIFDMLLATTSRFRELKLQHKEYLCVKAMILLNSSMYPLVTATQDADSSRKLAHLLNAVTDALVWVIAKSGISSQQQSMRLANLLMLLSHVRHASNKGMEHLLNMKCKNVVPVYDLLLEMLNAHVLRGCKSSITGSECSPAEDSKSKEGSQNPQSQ
Chain of Genome polyprotein (P29990 2492-3391 limits assumed): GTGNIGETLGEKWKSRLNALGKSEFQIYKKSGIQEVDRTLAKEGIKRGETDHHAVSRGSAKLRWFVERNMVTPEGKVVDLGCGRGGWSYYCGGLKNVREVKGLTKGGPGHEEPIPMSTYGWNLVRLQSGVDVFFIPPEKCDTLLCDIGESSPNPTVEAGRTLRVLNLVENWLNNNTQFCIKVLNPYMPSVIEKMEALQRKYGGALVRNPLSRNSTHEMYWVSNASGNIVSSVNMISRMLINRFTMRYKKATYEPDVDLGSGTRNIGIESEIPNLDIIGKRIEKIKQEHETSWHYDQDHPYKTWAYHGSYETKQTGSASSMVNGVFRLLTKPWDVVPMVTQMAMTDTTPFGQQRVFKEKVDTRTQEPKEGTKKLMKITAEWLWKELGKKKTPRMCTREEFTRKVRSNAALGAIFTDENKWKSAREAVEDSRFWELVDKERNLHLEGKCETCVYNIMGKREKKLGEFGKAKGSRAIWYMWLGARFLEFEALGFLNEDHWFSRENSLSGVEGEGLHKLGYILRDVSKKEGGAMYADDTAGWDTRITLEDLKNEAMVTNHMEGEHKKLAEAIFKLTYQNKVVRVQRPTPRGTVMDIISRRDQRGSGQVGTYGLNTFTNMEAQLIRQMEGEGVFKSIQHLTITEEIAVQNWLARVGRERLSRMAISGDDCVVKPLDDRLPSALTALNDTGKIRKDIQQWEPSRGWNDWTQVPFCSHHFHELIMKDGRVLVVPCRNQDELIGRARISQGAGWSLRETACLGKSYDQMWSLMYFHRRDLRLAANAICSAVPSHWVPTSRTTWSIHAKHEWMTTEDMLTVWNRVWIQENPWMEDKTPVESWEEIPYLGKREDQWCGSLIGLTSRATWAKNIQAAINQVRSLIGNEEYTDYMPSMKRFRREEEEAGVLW
Chain of Beta Lactamase (Q932Y6 whole entry, the tested form may be a part): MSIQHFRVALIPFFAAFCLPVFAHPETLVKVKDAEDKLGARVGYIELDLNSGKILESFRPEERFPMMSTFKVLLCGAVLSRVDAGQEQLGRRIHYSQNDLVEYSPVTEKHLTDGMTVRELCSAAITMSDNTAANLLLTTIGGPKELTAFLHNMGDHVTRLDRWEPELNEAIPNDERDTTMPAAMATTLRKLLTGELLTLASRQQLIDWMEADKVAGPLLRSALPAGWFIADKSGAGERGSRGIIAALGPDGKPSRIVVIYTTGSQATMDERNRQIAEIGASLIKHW

On to `c1cncc(CNc2ncnc3sc4c(c23)CCCC4)c1`, for which the AC50 in [1] was > 380 µM (inactive). Moreover, at Protein RecA, the EC50 was > 380 µM (inactive).
With `CC(=O)N1/C(=C/c2ccc(N(C)C)cc2)C(=O)c2ccccc21`, the IC50 was 16.7 µM (active) at Nonstructural protein 1 and 76.9 µM (inactive) at Protein skinhead-1.
Turning to `Cc1ccc(-n2nc(C)c3c2OC(N)=C(C#N)C3c2ccoc2)cc1` (centres undefined), the AC50 in test [1] was 5.41 µM (active). Besides, the EC50 on Protein RecA was 2.56 µM (active).
For `N#CC1=C(N)Oc2[nH]nc(-c3ccc(F)cc3)c2C1c1cccc(OC(=O)N2CCOCC2)c1` (centres undefined), in that order: 6.74 µM (active) and 1.29 µM (active).
`N#Cc1cc2c(=O)n3ccccc3nc2n(CCCn2ccnc2)c1=N`: the IC50 at Estrogen receptor beta is > 50 µM (not active).
Regarding `CS(=O)(=O)c1cccc(C(=O)Nc2nnc(C3=COCCO3)o2)c1`, the IC50 in test [2] and in test [3] was > 66 µM (inactive) throughout.
Consider `C[C@@H]1CN([C@H](C)CO)C(=O)c2cccc(NC(=O)CCCCCC(=O)Nc3ccccc3N)c2O[C@@H]1CN(C)S(=O)(=O)c1ccc(F)cc1`, for which the AC50 in [4] is 3.66 µM (active).
Regarding `COC(=O)c1scc2c(O)cc(C(F)(F)F)nc12`, the IC50 in [2] is 35.7 µM (inactive); in test [3], > 66 µM (inactive). The EC50 in test [5] was 5.75 µM (active).
With `O=C(O)c1cc([N+](=O)[O-])c(Nc2cccc3ccccc23)c([N+](=O)[O-])c1`, the IC50 at Genome polyprotein is 64.7 µM (active).
On to `N#CCCN(C(=O)CCl)c1cccc(Cl)c1`, for which, in [1], the AC50 is 78.4 µM (active). Besides, on Protein RecA, the EC50 is 8.64 µM (active).
Take `C[C@H](CO)N1C[C@H](C)[C@H](CN(C)Cc2ccc(Cl)c(Cl)c2)Oc2c(NC(=O)Nc3ccc4c(c3)OCO4)cccc2C1=O`: the AC50 in [4] was 2.61 µM (active).
Take `Clc1ccc(-c2nc3cnccn3c2Nc2ccc3c(c2)OCO3)cc1`: the CC50 in test [6] is 19.9 µM (active).
Regarding `C[C@@H]1CCCCO[C@@H](CN(C)CC2CCCCC2)[C@@H](C)CN([C@H](C)CO)C(=O)c2cc(NC(=O)Nc3ccc(C(F)(F)F)cc3)ccc2O1`, in test [4], the AC50 was 1.63 µM (active).
Turning to `COc1cccc(/C=C2\SC(N)=NC2=O)c1OS(=O)(=O)c1ccccc1`, the CC50 in [6] was > 40 µM (active).
For the compound `Cc1ccc(S(=O)(=O)NC(CC(C)C)C(=O)N2CCN(C/C=C/c3ccccc3)CC2)cc1` (centres undefined), the CC50 in [6] and in [7] was > 40 µM (active) throughout.
For the compound `CCOc1ccccc1-c1c2cc(O)c(=O)cc-2oc2cc(O)c(O)cc12`, the IC50 at Nonstructural protein 1 was 28.1 µM (active). In test [8], the AC50 is 6.24 µM (active).
As for `C[C@H](CO)N1C[C@H](C)[C@@H](CN(C)CC2CC2)Oc2c(NC(=O)CCCCCC(=O)Nc3ccccc3N)cccc2C1=O`, the AC50 in test [4] is 2.88 µM (active).
Take `COc1ccc(CCN(C)C(=O)COC(=O)/C=C/c2ccc(C)o2)cc1OC`: the CC50 in test [6] was > 40 µM (active).
Regarding `CCC(=O)NC(=S)Nc1c(C)cc(Br)cc1C`, the IC50 in test [2] and in test [3] was > 66 µM (inactive) throughout.
For `COc1ccc(OC)c(C=Cc2ccc([N+](=O)[O-])cc2)c1`, the IC50 was 8.19 µM (active) on Beta Lactamase and > 49.7 µM (inactive) in the test on CHO.
As to `COc1ccccc1-c1c(C)nn2c(O)c(Cc3ccccc3)c(C)nc12`, the CC50 in [6] is > 40 µM (active).
For the compound `C[C@H]1CN([C@@H](C)CO)C(=O)c2cccc(NC(=O)Nc3cccc4ccccc34)c2O[C@H]1CN(C)Cc1ccc(C(F)(F)F)cc1`, the AC50 in test [4] was 2.85 µM (active).

Source of the values: ChEMBL document CHEMBL1201862, “PubChem BioAssay data set” (2004).
